Holding throughout (conditions): primary screen
In one test the test system is ENR+CD organoids. Briefly: Primary screen: ATP (CellTiter-Glo 3D, CTG) cell number/viability, 2.5-D 384-well ENR+CD organoids.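 Further: compounds given at plating and again on day 3 over a 6-day differentiation from ENR+CV stem-cell-enriched precursors, ATP measured on day 6, plate median as control.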
The subject of test [1] is ENR+CD organoids (ISC to Paneth cell differentiation). Briefly: Primary screen: basal (non-stimulated) lysozyme secretion LYZ.NS, 2.5-D 384-well ENR+CD organoid differentiation. Type of test: cell-based, mouse. The text has this: (§1) High-throughput screening.
Test [2] shares this test system. Briefly: Primary screen: CCh-stimulated lysozyme secretion LYZ.S, 2.5-D 384-well ENR+CD organoid differentiation. Type of test: cell-based, mouse.
Source text: as §1

In the case of `CN(C)C(=O)Nc1cccc(-c2ccc(N(C)C)cc2)c1` [Atglistatin], the Dose.FC.CTG in the test with ENR+CD organoids (dose 0.08 uM) was 0.057 log2 fold change; in the test on ENR+CD organoids (dose 0.40 uM) it was 0.004 log2 fold change; in the test on ENR+CD organoids (dose 2.00 uM), −0.045 log2 fold change; with ENR+CD organoids (dose 10.00 uM), −0.431 log2 fold change. The “Z.CTG (standard z score)” value in the test on ENR+CD organoids (dose 0.08 uM) is on record as 0.137; in the test on ENR+CD organoids (dose 0.40 uM) it was 0.009; in the test with ENR+CD organoids (dose 2.00 uM), −0.108; with ENR+CD organoids (dose 10.00 uM) it was −1.031. Further, the Dose.FC.LYZ.NS is on record as 0.069 log2 fold change in test [1] (dose 0.08 uM), 0.135 log2 fold change in test [1] (dose 0.40 uM), 0.070 log2 fold change in test [1] (dose 2.00 uM) and −0.016 log2 fold change in test [1] (dose 10.00 uM). In addition, the “Z.LYZ.NS (standard z score)” value was 0.604 in test [1] (dose 0.08 uM), 1.176 in test [1] (dose 0.40 uM), 0.613 in test [1] (dose 2.00 uM) and −0.142 in test [1] (dose 10.00 uM). Also, the Dose.FC.LYZ.S in test [2] (dose 0.08 uM) is 0.028 log2 fold change; in test [2] (dose 0.40 uM), −0.035 log2 fold change; in test [2] (dose 2.00 uM), 0.026 log2 fold change; in test [2] (dose 10.00 uM), 0.012 log2 fold change.
With `CC(C)c1c(C(=O)Nc2ccccc2)c(-c2ccccc2)c(-c2ccc(F)cc2)n1CC[C@@H](O)C[C@@H](O)CC(=O)[O-].CC(C)c1c(C(=O)Nc2ccccc2)c(-c2ccccc2)c(-c2ccc(F)cc2)n1CC[C@@H](O)C[C@@H](O)CC(=O)[O-].[Ca+2]` [Atorvastatin Calcium], the Dose.FC.CTG was −0.129 log2 fold change in the test with ENR+CD organoids (dose 0.08 uM), −0.348 log2 fold change in the test with ENR+CD organoids (dose 0.40 uM), −1.085 log2 fold change in the test with ENR+CD organoids (dose 2.00 uM) and −1.583 log2 fold change in the test with ENR+CD organoids (dose 10.00 uM). The “Z.CTG (standard z score)” value in the test on ENR+CD organoids (dose 0.08 uM) is recorded as −0.309; with ENR+CD organoids (dose 0.40 uM), −0.831; with ENR+CD organoids (dose 2.00 uM) it was −2.591; in the test with ENR+CD organoids (dose 10.00 uM), −3.780. Further, the Dose.FC.LYZ.NS is given as −0.009 log2 fold change in test [1] (dose 0.08 uM), 0.007 log2 fold change in test [1] (dose 0.40 uM), −0.247 log2 fold change in test [1] (dose 2.00 uM) and −0.235 log2 fold change in test [1] (dose 10.00 uM). The “Z.LYZ.NS (standard z score)” value is given as −0.077 in test [1] (dose 0.08 uM), 0.062 in test [1] (dose 0.40 uM), −2.148 in test [1] (dose 2.00 uM) and −2.045 in test [1] (dose 10.00 uM). Besides, the Dose.FC.LYZ.S is 0.022 log2 fold change in test [2] (dose 0.08 uM), −0.062 log2 fold change in test [2] (dose 0.40 uM), −0.354 log2 fold change in test [2] (dose 2.00 uM) and −0.305 log2 fold change in test [2] (dose 10.00 uM).
On to `CCN1CCN(c2ccc(Nc3cc(N(C)C(=O)Nc4c(Cl)c(OC)cc(OC)c4Cl)ncn3)cc2)CC1` [BGJ398 (NVP-BGJ398)], for which the Dose.FC.CTG is on record as −0.054 log2 fold change in the test with ENR+CD organoids (dose 0.08 uM), 0.026 log2 fold change with ENR+CD organoids (dose 0.40 uM), −0.185 log2 fold change in the test with ENR+CD organoids (dose 2.00 uM) and −1.500 log2 fold change in the test with ENR+CD organoids (dose 10.00 uM). The “Z.CTG (standard z score)” value is listed as −0.128 in the test with ENR+CD organoids (dose 0.08 uM), 0.063 with ENR+CD organoids (dose 0.40 uM), −0.442 in the test with ENR+CD organoids (dose 2.00 uM) and −3.583 in the test with ENR+CD organoids (dose 10.00 uM). Further, the Dose.FC.LYZ.NS is reported as −0.002 log2 fold change in test [1] (dose 0.08 uM), −0.060 log2 fold change in test [1] (dose 0.40 uM), −0.052 log2 fold change in test [1] (dose 2.00 uM) and −0.269 log2 fold change in test [1] (dose 10.00 uM). For the same compound, the “Z.LYZ.NS (standard z score)” value in test [1] (dose 0.08 uM) was −0.017; in test [1] (dose 0.40 uM), −0.520; in test [1] (dose 2.00 uM), −0.450; in test [1] (dose 10.00 uM), −2.345. For the same compound, the Dose.FC.LYZ.S in test [2] (dose 0.08 uM) is −0.036 log2 fold change; in test [2] (dose 0.40 uM), 0.002 log2 fold change; in test [2] (dose 2.00 uM) it was −0.062 log2 fold change; in test [2] (dose 10.00 uM), −0.350 log2 fold change.
For the compound `CC[C@@H]1C(=O)N(C)c2cnc(Nc3ccc(C(=O)NC4CCN(C)CC4)cc3OC)nc2N1C1CCCC1` [BI 2536], the Dose.FC.CTG in the test on ENR+CD organoids (dose 0.08 uM) is 0.029 log2 fold change; in the test on ENR+CD organoids (dose 0.40 uM) it was −0.534 log2 fold change; in the test on ENR+CD organoids (dose 2.00 uM), −0.511 log2 fold change; in the test on ENR+CD organoids (dose 10.00 uM), −1.028 log2 fold change. In addition, the Dose.FC.LYZ.NS in test [1] (dose 0.08 uM) is listed as −0.104 log2 fold change; in test [1] (dose 0.40 uM) it was −0.129 log2 fold change; in test [1] (dose 2.00 uM), −0.134 log2 fold change; in test [1] (dose 10.00 uM), −0.109 log2 fold change. Moreover, the “Z.LYZ.NS (standard z score)” value in test [1] (dose 0.08 uM) is listed as −0.907; in test [1] (dose 0.40 uM) it was −1.121; in test [1] (dose 2.00 uM), −1.168; in test [1] (dose 10.00 uM), −0.953. The Dose.FC.LYZ.S in test [2] (dose 0.08 uM) is given as −0.163 log2 fold change; in test [2] (dose 0.40 uM), −0.220 log2 fold change; in test [2] (dose 2.00 uM), −0.224 log2 fold change; in test [2] (dose 10.00 uM), −0.185 log2 fold change.
Turning to `CC(C)CCN1c2nc(Nc3cc(F)c(O)c(F)c3)ncc2N(C)C(=O)C1C` (stereo not shown) [BI-D1870], the Dose.FC.CTG with ENR+CD organoids (dose 0.08 uM) was 0.186 log2 fold change; in the test on ENR+CD organoids (dose 0.40 uM), 0.029 log2 fold change; with ENR+CD organoids (dose 2.00 uM) it was −0.012 log2 fold change; with ENR+CD organoids (dose 10.00 uM), −0.700 log2 fold change. Besides, the “Z.CTG (standard z score)” value is 0.444 with ENR+CD organoids (dose 0.08 uM), 0.069 with ENR+CD organoids (dose 0.40 uM), −0.028 with ENR+CD organoids (dose 2.00 uM) and −1.673 with ENR+CD organoids (dose 10.00 uM). Further, the Dose.FC.LYZ.NS in test [1] (dose 0.08 uM) is 0.141 log2 fold change; in test [1] (dose 0.40 uM) it was 0.126 log2 fold change; in test [1] (dose 2.00 uM) it was −0.066 log2 fold change; in test [1] (dose 10.00 uM), −0.285 log2 fold change. In addition, the “Z.LYZ.NS (standard z score)” value is on record as 1.225 in test [1] (dose 0.08 uM), 1.099 in test [1] (dose 0.40 uM), −0.574 in test [1] (dose 2.00 uM) and −2.483 in test [1] (dose 10.00 uM). The Dose.FC.LYZ.S in test [2] (dose 0.08 uM) is given as 0.162 log2 fold change; in test [2] (dose 0.40 uM), 0.158 log2 fold change; in test [2] (dose 2.00 uM) it was 0.008 log2 fold change; in test [2] (dose 10.00 uM), −0.378 log2 fold change.
In the case of `C/C(=C\C(=O)Nc1ccccc1C(=O)O)c1ccc2ccccc2c1` [BIBR 1532], the Dose.FC.CTG is 0.223 log2 fold change in the test on ENR+CD organoids (dose 0.08 uM), −0.047 log2 fold change in the test with ENR+CD organoids (dose 0.40 uM), −0.034 log2 fold change in the test with ENR+CD organoids (dose 2.00 uM) and 0.030 log2 fold change with ENR+CD organoids (dose 10.00 uM). For the same compound, the “Z.CTG (standard z score)” value in the test with ENR+CD organoids (dose 0.08 uM) is 0.533; with ENR+CD organoids (dose 0.40 uM) it was −0.113; in the test on ENR+CD organoids (dose 2.00 uM), −0.080; with ENR+CD organoids (dose 10.00 uM), 0.072. For the same compound, the Dose.FC.LYZ.NS in test [1] (dose 0.08 uM) is given as 0.032 log2 fold change; in test [1] (dose 0.40 uM), 0.043 log2 fold change; in test [1] (dose 2.00 uM), −0.013 log2 fold change; in test [1] (dose 10.00 uM), −0.062 log2 fold change. The “Z.LYZ.NS (standard z score)” value is on record as 0.282 in test [1] (dose 0.08 uM), 0.377 in test [1] (dose 0.40 uM), −0.117 in test [1] (dose 2.00 uM) and −0.536 in test [1] (dose 10.00 uM). The Dose.FC.LYZ.S in test [2] (dose 0.08 uM) is given as 0.028 log2 fold change; in test [2] (dose 0.40 uM), 0.107 log2 fold change; in test [2] (dose 2.00 uM), −0.081 log2 fold change; in test [2] (dose 10.00 uM) it was −0.114 log2 fold change.
For the compound `COc1ccc2c(c1)c(CC(=O)N1CCOCC1)c(C)n2C(=O)c1ccc(Cl)cc1` [BML-190], the Dose.FC.CTG is −0.003 log2 fold change in the test with ENR+CD organoids (dose 0.08 uM), −0.099 log2 fold change with ENR+CD organoids (dose 0.40 uM), −0.106 log2 fold change with ENR+CD organoids (dose 2.00 uM) and −0.106 log2 fold change in the test on ENR+CD organoids (dose 10.00 uM). Also, the “Z.CTG (standard z score)” value is −0.007 with ENR+CD organoids (dose 0.08 uM), −0.237 with ENR+CD organoids (dose 0.40 uM), −0.254 in the test on ENR+CD organoids (dose 2.00 uM) and −0.254 in the test with ENR+CD organoids (dose 10.00 uM). The Dose.FC.LYZ.NS in test [1] (dose 0.08 uM) is listed as 0.072 log2 fold change; in test [1] (dose 0.40 uM) it was −0.017 log2 fold change; in test [1] (dose 2.00 uM) it was 0.116 log2 fold change; in test [1] (dose 10.00 uM), 0.209 log2 fold change. The “Z.LYZ.NS (standard z score)” value in test [1] (dose 0.08 uM) was 0.623; in test [1] (dose 0.40 uM), −0.152; in test [1] (dose 2.00 uM) it was 1.011; in test [1] (dose 10.00 uM), 1.823. The Dose.FC.LYZ.S in test [2] (dose 0.08 uM) is on record as 0.060 log2 fold change; in test [2] (dose 0.40 uM), −0.037 log2 fold change; in test [2] (dose 2.00 uM), 0.017 log2 fold change; in test [2] (dose 10.00 uM), 0.067 log2 fold change.
`COc1ccnc2[nH]cc(C(=O)C(=O)N3CCN(C(=O)c4ccccc4)C[C@H]3C)c12` [BMS-378806]: the Dose.FC.CTG is 0.233 log2 fold change in the test on ENR+CD organoids (dose 0.08 uM), −0.289 log2 fold change in the test on ENR+CD organoids (dose 2.00 uM) and −1.155 log2 fold change in the test with ENR+CD organoids (dose 10.00 uM). Besides, the “Z.CTG (standard z score)” value in the test on ENR+CD organoids (dose 0.08 uM) was 0.557; in the test with ENR+CD organoids (dose 2.00 uM), −0.691; in the test with ENR+CD organoids (dose 10.00 uM) it was −2.758. The Dose.FC.LYZ.NS in test [1] (dose 0.08 uM) was 0.141 log2 fold change; in test [1] (dose 2.00 uM), −0.100 log2 fold change; in test [1] (dose 10.00 uM), −0.227 log2 fold change. Further, the “Z.LYZ.NS (standard z score)” value is listed as 1.231 in test [1] (dose 0.08 uM), −0.870 in test [1] (dose 2.00 uM) and −1.977 in test [1] (dose 10.00 uM). Moreover, the results for the Dose.FC.LYZ.S in test [2] (dose 0.08 uM), in test [2] (dose 2.00 uM) and in test [2] (dose 10.00 uM) were 0.159 log2 fold change, −0.142 log2 fold change and −0.322 log2 fold change, respectively.
